# Measured values taken from patent EP0552765B1, “Benzimidazoles, pharmaceutical compositions containing them and process for their preparation” (Dr. Karl Thomae GmbH, priority 1992, dated 1993).
# Counter-ions that a name gives are not always drawn.
# Target: Angiotensin II-Rezeptor
# Test: Angiotensin II receptor binding (displacement of [125I]-Angiotensin II from rat lung homogenate)
# Design: species or system Ratte
# Conditions: Rattenlunge homogenate; 50 pM [125I]-Angiotensin II; 60 Min. at 37°C; IC50 from dose-response curve
# Experimental: Methodenbeschreibung Angiotensin II-Rezeptorbindung
# Das Gewebe (Rattenlunge) wird in Tris-Puffer (50 mMol Tris, 150 mMol NaCl, 5 mMol EDTA, pH 7.40) homogenisiert und zweimal je 20 Min. bei 20.000 x g zentrifugiert. Das endgültige Pellet wird in Inkubations-Puffer (50 mMol Tris, 5 mMol MgCl2, 0,2 % BSA, pH 7,40) 1:75, bezogen auf das Feuchtgewicht des Gewebes, resuspendiert. Je 0,1 ml Homogenat wird für 60 Min. bei 37°C mit 50 pM [125^I]-Angiotensin II (NEN, Dreieich, FRG) und steigenden Konzentrationen der Testsubstanz in einem Gesamtvolumen von 0,25 ml inkubiert. Die Inkubation wird durch rasche Filtration durch Glasfiber-Filtermatten beendet. Die Filter werden je 4 ml eiskaltem Puffer (25 mMol Tris, 2.5 mMol MgCl2, 0,1 % BSA, pH 7,40) gewaschen. Die gebundene Radioaktivität wird in einem Gamma-Counter ermittelt. Aus der Dosis-Wirkungskurve wird der entsprechende IC50-Wert ermittelt.
row,SMILES,IC50
1,"CCCc1nc2c(C)cc(-c3cn(C)cn3)cc2n1Cc1ccc(-c2ccccc2C(=O)O)cc1 [Substanz A, 4'-[(2-n-Propyl-4-methyl-6-(1-methyl-imidazol-4-yl)-benzimidazol-1-yl)-methyl]-biphenyl-2-carbonsäure, reference compound]",1.2 nM
2,"CCCc1nc2c(C)cc(-c3coc(C)n3)cc2n1Cc1ccc(-c2ccccc2C(=O)O)cc1 [Substanz C, 4'-[(2-n-Propyl-4-methyl-6-(2-methyl-oxazol-4-yl)-benzimidazol-1-yl)-methyl]-biphenyl-2-carbonsäure]",40 nM
3,"CCOc1nc2ccc(-c3cn(C(C)C)cn3)cc2n1Cc1ccc(-c2ccccc2C(=O)O)cc1 [Substanz D, 4'-[(2-Ethoxy-6-(1-isopropyl-imidazol-4-yl)-benzimidazol-1-yl)-methyl]-biphenyl-2-carbonsäure]",10 nM
4,"CCCc1nc2c(C)cc(-c3cn(C4CCCCCC4)cn3)cc2n1Cc1ccc(-c2ccccc2C(=O)O)cc1 [Substanz E, 4'-[(2-n-Propyl-4-methyl-6-(1-cycloheptyl-imidazol-4-yl)-benzimidazol-1-yl)-methyl]-biphenyl-2-carbonsäure]",15 nM
5,"CCCc1nc2c(C)cc(-c3cn(CC(N)=O)cn3)cc2n1Cc1ccc(-c2ccccc2C(=O)O)cc1 [Substanz F, 4'-[(2-n-Propyl-4-methyl-6-(1-aminocarbonylmethyl-imidazol-4-yl)-benzimidazol-1-yl)-methyl]-biphenyl-2-carbonsäure]",3.4 nM
6,"CCCc1nc2c(C)cc(-c3cn(CCCN(C)C)cn3)cc2n1Cc1ccc(-c2ccccc2C(=O)O)cc1 [Substanz G, 4'-[(2-n-Propyl-4-methyl-6-(1-(3-dimethylaminopropyl)-imidazol-4-yl)-benzimidazol-1-yl)-methyl]-biphenyl-2-carbonsäure-dihydrochlorid-pentahydrat]",1.3 nM
